Measured values taken from US10766914B2, “DNA alkylating agents” (OBI PHARMA, INC., priority 2015, dated 2020).
pIC50: −log10 of the molar value.

Columns and labels:
[1] = Pharmacokinetics of TH2870 in CD-1 mice, single IV bolus and single IP dose; conditions: mouse, in vivo
Experimental: The pharmacokinetics of TH2870 in CD-1 mice following a single intravenous bolus dose (5 mg/kg) and a single intraperitoneal dose (10 mg/kg) were determined.

[2] = Example 4-I body weight change, H460 xenograft study; format: in vivo, female nude mice (nu/nu); conditions: iv, Q7D × 3
Experimental: (§1) Cells were mixed with Matrigel (50% with exception for 30% in the H460) and 0.2 ml per mouse were subcutaneously implanted to the flank area of the animals. When tumor size reached 100-150 250 mm3, mice were randomized into experimental or vehicle groups with 10 mice/group and treatment was started (Day 1). The tested compounds were formulated in 5% DMSO in D5W. The regimens employed in the examples include IP, QD×5/wk (5 days on, 2 days off) as one cycle, for a total of 2 cycles; IP, once; IP, weekly for total 3 weeks; and IV, weekly for 3 weeks. Tumor growth and body weight were measured twice a week. Tumor volume was calculated as (length×width2)/2. Drug efficacy was assessed as Tumor Growth Inhibition (TGI) and Tumor Growth Delay (TGD). TGI was defined as (1−ΔT/ΔC)×100, where ΔT/ΔC presented the ratio of the change in mean (or median, if variation within the group was relatively large) tumor volume of the treated group and of the control group. TGD was calculated as the extra days for the treated tumor to reach 500 mm3 or 1000 mm3 as compared to the control group. Animals were culled when individual tumor size reached over 2000 mm3 or mean tumor volume exceeded 1000 mm3 in the group. Data are expressed as the mean±SEM. One-way analysis of variance with Dunnett post comparison test (GraphPad Prism 4) or two-tailed student's t-test were used for analysis. A P level <0.05 was considered statistically significant.
(§2) The compound TH-2870 was tested in a H460 model. The compound was dosed follows. 1.5, 5 or 15 mg/kg, IV, weekly for 3 weeks at 250 mm^3 tumors on day 1 (10 animals per group average tumor volume), comparing with docetaxel. The antitumor effects and the safety of administration are graphically illustrated below.

LIXC-066 = test: TH2870 sensitivity in liver cancer cells; format: cell-based, human; conditions: AKR1C3 expression ++
LIXC-003 = test: TH2870 sensitivity in liver cancer cells; format: cell-based, human; conditions: AKR1C3 expression ++++
HCCC-9810 = test: TH2870 sensitivity in liver cancer cells; format: cell-based, human; conditions: AKR1C3 expression ++++
HuCCT1 = test: TH2870 sensitivity in liver cancer cells; format: cell-based, human
[3] = Example 4-C body weight change, A375 xenograft study; format: in vivo, female nude mice (nu/nu); conditions: 20 mpk, qd × 5 × 2, ip
In short: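 Cells in 50% Matrigel were implanted subcutaneously in the flank, and mice (10/group) were randomized at 100-150 mm3. Compounds in 5% DMSO/D5W were dosed IP QD×5/wk ×2 cycles, IP once, IP weekly ×3 wk, or IV weekly ×3 wk. Body weight and tumour volume were measured twice weekly; TGI = (1−ΔT/ΔC)×100.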

[4] = system: A 549 non-small cell lung xenograft; test: Example 4-B antitumor efficacy, ectopic A549 NSCLC xenograft model; format: in vivo, female nude mice (nu/nu); conditions: 20 mg/kg ip QD × 5/wk × 2 wks
Source text: (§3) Specific pathogen-free homozygous female nude mice (nu/nu, Charles River Laboratories) were used. Mice were given food and water ad libitum and housed in microisolator cages. Four to six week old animals were identified by microchips (Locus Technology, Manchester, Md., USA) at the time of the experiments. All animal studies were approved by the Institutional Animal Care and Use Committee at Threshold Pharmaceuticals, Inc.
(§4) All cell lines were from the American Type Culture Collection (ATCC, Rockville, Md., USA).
as §1
The dosing was as follows. Daily IP dosing: 5 doses then 2 days off then 5 more doses starting at 110 mm^3 tumors on day 1 (10 animals per group average tumor volume).
Doses were selected by first doing a toxicity test in CD1 mice as described above. The compounds were tested against Thio-tepa.

SNU-387 = test: TH2870 sensitivity in liver cancer cells; format: cell-based, human; conditions: AKR1C3 expression ++++
HLE = test: TH2870 sensitivity in liver cancer cells; format: cell-based, human; conditions: AKR1C3 expression ++
HLF = test: TH2870 sensitivity in liver cancer cells; format: cell-based, human; conditions: AKR1C3 expression /
[5] = Example 4-B body weight change, A549 xenograft study; format: in vivo, female nude mice (nu/nu); conditions: 20 mg/kg ip QD × 5/wk × 2 wks
Experimental: as §1
Antitumor effects of compounds provided herein were determined on A 549 non-small cell lung xenograft model in comparison with a chemotherapy agent, thiotepa. The dosing was as follows. Daily IP dosing: 5 doses then 2 days off then 5 more doses starting at 110 mm^3 tumors on day 1 (10 animals per group average tumor volume). The antitumor effects and the safety of administration are graphically illustrated below.

DU145 = test: TH2870 sensitivity in prostate cancer cell lines; format: cell-based; conditions: Homo sapiens, DU-145
SNU-398 = test: TH2870 sensitivity in liver cancer cells; format: cell-based, human; conditions: AKR1C3 expression /
in vivo = conditions: mouse, ip, 20 mg/kg
Experimental: The pharmacokinetics of TH2870 were determined in Mouse/Nu-Foxn 1^nu NU/NU mice with A549 (non small cell lung), A375 (melanoma) and 786-O (renal cell) human tumor xenograft models following a single intraperitoneal dose of 20 mg/kg.

22RV1 = test: TH2870 sensitivity in prostate cancer cell lines; format: cell-based; conditions: Homo sapiens
LIXC-002 = test: TH2870 sensitivity in liver cancer cells; format: cell-based, human; conditions: AKR1C3 expression +++
LNCap = test: TH2870 sensitivity in prostate cancer cell lines; format: cell-based; conditions: Homo sapiens
H460 NSCLC xenograft = test: Example 4-I antitumor efficacy, ectopic H460 NSCLC xenograft model; format: in vivo, female nude mice (nu/nu); conditions: iv, Q7D × 3; for TGD500, Days (vs. vehicle) / TGD1000, Days (vs. vehicle): H460; for TGI: H460, 250 mm3 tumors on day 1
Source text: as §3, §4, §1, §2

[6] = Homo sapiens, read-out: RelIC50

## CC(OP(=O)(N1CC1)N1CC1)c1ccc([N+](=O)[O-])c(Oc2cccc(C(=O)N(C)C)c2)c1 (centres unmarked) [Compound 2870]
[1]; IP 10 mg/kg
  AUC: 725 ng·h/mL
  Cmax: 4020 ng/mL
  Tmax: 5 min
  half-life: 9 min
[1]; IV bolus 5 mg/kg
  AUC: 963 ng·h/mL
  Cmax: 6790 ng/mL
  Tmax: 2 min
  clearance: 86.5 mL/min/kg
  half-life: 6.56 min
[1]; IV bolus 5 mg/kg, read-out: Vss
  Vd: 0.668 L/kg
[2]; 1.5 mg/kg
  Max. BW loss %: 7.6%
[2]; 5 mg/kg
  Max. BW loss %: 7.6%
[2]; 15 mg/kg
  Max. BW loss %: 5.8%
LIXC-066
  Max Inhibition %: 75.4%
LIXC-066; [6]
  pIC50: 7.03
LIXC-003
  Max Inhibition %: 44.6%
LIXC-003; [6]
  pIC50: 8.27
HCCC-9810
  Max Inhibition %: 95.4%
HuCCT1; AKR1C3 expression +
  Max Inhibition %: 66.7%
HuCCT1; Homo sapiens, HuCCT-1, AKR1C3 expression +, read-out: RelIC50
  pIC50: 6.90
[3]
  Max. BW loss %: 0%
[4]
  TGD 500: >72 days
  TGI: 102.3%
SNU-387
  Max Inhibition %: 102.8%
HLE
  Max Inhibition %: 80.5%
HLE; [6]
  pIC50: 7.07
HLF
  Max Inhibition %: 22.5%
HLF; [6]
  pIC50: < 6.00
[5]
  Max. BW loss %: 1.6%
DU145
  pIC50: 7.37
SNU-398
  Max Inhibition %: 15.3%
SNU-398; [6]
  pIC50: < 6.00
In vivo; Nu-Foxn1nu NU/NU
  Kp: 0.0079 to 0.326
  Tmax: 5 min
In vivo; Nu-Foxn 1nu NU/NU, AUC
  AUC: 1570 ng·h/mL
In vivo; Nu-Foxn 1nu NU/NU, Cmax
  Cmax: 5010 ng/mL
In vivo; Nu-Foxn 1nu NU/NU, Half-Life
  half-life: 11.3 min
22RV1
  pIC50: 8.72
LIXC-002
  Max Inhibition %: 99.1%
LIXC-002; [6]
  pIC50: 7.25
LNCap
  pIC50: 6.79
H460 NSCLC xenograft; 1.5 mg/kg
  TGD500, Days (vs. vehicle): 18 days
  TGD1000, Days (vs. vehicle): 18 days
  TGI: 100.0%
H460 NSCLC xenograft; 5 mg/kg
  TGD500, Days (vs. vehicle): 36 days
  TGD1000, Days (vs. vehicle): 38 days
  TGI: 121.3%
H460 NSCLC xenograft; 15 mg/kg
  TGD500, Days (vs. vehicle): 49 days
  TGD1000, Days (vs. vehicle): 50 days
  TGI: 121.6%
